From patent US9169229B2, “Method for producing purified dialkyl-furan-2,5-dicarboxylate by physical separation and solid liquid separation” (Eastman Chemical Company, priority 2012, dated 2015)

What was measured:
[1] = Solubility of DMFD in methanol (jacketed solubility cell, samples analyzed by gas chromatography); format: physicochemical
Protocol: (§1) The solubility of DMFD in water and methanol was tested according to the following procedure: A jacketed 120 ml solubility cells equipped with a condenser, a digital thermometer, a nitrogen blanket and connected to a circulating bath capable of heating/cooling was charged with […] and water or methanol. The heterogeneous mixture was heated to the desired temperature and sample was taken using preheated fritted glass pipette. The samples were analyzed using gas chromatography.

[2] = Solubility of DMFD in water (jacketed solubility cell, samples analyzed by gas chromatography); format: physicochemical
Protocol: as §1

DMFD Solubility (wt %) in Methanol ([1]; T 1.0 ° C.): 0.6 wt % | DMFD Solubility (wt %) in Methanol ([1]; T 14.1 ° C.): 1.4 wt % | DMFD Solubility (wt %) in Methanol ([1]; T 26.3 ° C.): 2.8 wt % | DMFD Solubility (wt %) in Methanol ([1]; T 35.3 ° C.): 4.5 wt % | DMFD Solubility (wt %) in Methanol ([1]; T 46.6 ° C.): 8.7 wt % | DMFD Solubility (wt %) in Methanol ([1]; T 56.1 ° C.): 15.4 wt % | DMFD Solubility (wt %) in Methanol ([1]; T 61.3 ° C.): 20.8 wt % | DMFD Solubility (wt %) in Water ([2]; T 1.4 ° C.): BDL | DMFD Solubility (wt %) in Water ([2]; T 13.1 ° C.): BDL | DMFD Solubility (wt %) in Water ([2]; T 26.6 ° C.): BDL | DMFD Solubility (wt %) in Water ([2]; T 35.6 ° C.): BDL | DMFD Solubility (wt %) in Water ([2]; T 47.0 ° C.): 0.1 wt % | DMFD Solubility (wt %) in Water ([2]; T 56.6 ° C.): 0.2 wt % | DMFD Solubility (wt %) in Water ([2]; T 63.9 ° C.): 0.3 wt % | DMFD Solubility (wt %) in Water ([2]; T 74.6 ° C.): 0.4 wt % | DMFD Solubility (wt %) in Water ([2]; T 89.5 ° C.): 0.9 wt % | DMFD Solubility (wt %) in Water ([2]; T 97.5 ° C.): 1.3 wt %
Compound: COC(=O)c1ccc(C(=O)OC)o1 [DMFD, dimethyl furan-2,5-dicarboxylate]
solubility of DMFD in water compared to methanol (in words) ([2]; temperature points from about 1° C. to about 61° C.): very low solubility in water compared to methanol
